Results: patent US7816358B2, “Pharmaceutical formulations comprising N,N′-disubstituted piperazine compounds” (Gruenenthal GmbH, priority 2001, dated 2010)

test system: gabapentin binding site; assay: Gabapentin binding assay: displacement of [3H]-gabapentin from its binding site; conditions: compound 10 μM in the test batch; [3H]-gabapentin 10 nM; homogenate 0.6 mg/ml protein; 40 minutes at room temperature
Description: In the binding assay, the binding and affinities of the compounds according to the invention to the binding site—which is also hitherto still unknown in science—of gabapentin is investigated. The affinity of the compounds was measured via the displacement of gabapentin from its binding site.
The procedure for the measurement was as follows: Homogenate aliquots were thawed and diluted 20-fold with buffer 1, resuspended and then centrifuged at 110,000×g for 20 minutes. The pellet was resuspended with buffer 2 (10 mM HEPES, 0.05% NaN3, 1 tablet of Complete (Roche Diagnostics) per 100 ml, 0.004% Structol, pH 7.4) and adjusted to a protein concentration of 0.6 mg/ml. 225 μl of homogenate, 20 μl of [^3H]-gabapentin (76 Ci/mmol) in buffer 2, corresponding to a concentration of 10 nM in the test batch, and 5 μl of a compound according to the invention (dissolved in 25% DMSO in water) with a concentration of 10 μM in the test batch were incubated on a shaking machine for 40 minutes at room temperature in 96-well microtiter plates (polypropylene, Costar) and the incubated mixture was then filtered with suction on 96-well Unifilter plates with GF/B filters (Whatman) using a harvester (Robotic Harvester 9600, Brandel). The filter plates were preswollen for 40 minutes in buffer 3 (50 mM Tris, 0.5% PEI, pH 7.4) before the filtering step. The filter plates were washed three times with wash buffer (0.1 M NaCl with 0.05 NaN3) after the filtering step in order to remove non-bound radioligand, and then dried in a drying cabinet at 55° C. After a cooling phase of 15 minutes, 35 μl of scintillator (Ultima Gold MV, Packard) were added per well and the radioactivity on the filters was then determined in a β-counter (Trilux Microbeta, Wallac).

Structure (SMILES)	Gabapentin [%] inhibition [%]
CN1CCN(CC2CCCCCCC2(O)Cc2ccccc2Cl)CC1 (stereo not drawn) [1-(2-Chloro-benzyl)-2-(4-methyl-piperazin-1-ylmethyl)-cyclooctanol]	61
CN1CCN(CC2CCCCCC2(O)Cc2c(F)cccc2Cl)CC1 (stereo not drawn) [1-(2-Chloro-6-fluoro-benzyl)-2-(4-methyl-piperzazin-1-ylmethyl)-cycloheptanol]	82
CN1CCN(CC2CCCCCCC2(O)Cc2ccc(Cl)cc2Cl)CC1 (stereo not drawn) [1-(2,4-Dichloro-benzyl)-2-(4-methyl-piperazin-1-ylmethyl)-cyclooctanol]	48
CN1CCN(CC2CCCCCC2(O)Cc2cccc(F)c2)CC1 (stereo not drawn) [1-(3-Fluoro-benzyl)-2-(4-methyl-piperazin-1-ylmethyl)-cycloheptanol]	44
CN1CCN(CC2CCCCCC2(O)Cc2ccccc2Cl)CC1 (stereo not drawn) [1-(2-Chloro-benzyl)-2-(4-methyl-piperazin-1-ylmethyl)-cycloheptanol]	74
CN1CCN(CC2CCCCCC2(O)Cc2ccc(Cl)cc2Cl)CC1 (stereo not drawn) [1-(2,4-Dichloro-benzyl)-2-(4-methyl-piperazin-1-ylmethyl)-cycloheptanol]	48
CN1CCN(CC2CCCCCCC2(O)Cc2ccc(F)cc2)CC1 (stereo not drawn) [1-(4-Fluoro-benzyl)-2-(4-methyl-piperazin-1-ylmethyl)-cyclooctanol]	39
CN1CCN(CC2CCCCCCCCCCC2(O)Cc2ccccc2)CC1 (stereo not drawn) [1-Benzyl-2-(4-methyl-piperazin-1-ylmethyl)-cyclododecanol]	56
CN1CCN(CC2CCCCCCC2(O)Cc2c(F)cccc2Cl)CC1 (stereo not drawn) [1-(2-Chloro-6-fluoro-benzyl)-2-(4-methyl-piperazin-1-ylmethyl)-cyclooctanol]	60
CN1CCN(CC2CCCCCCC2(O)Cc2cccc(F)c2)CC1 (stereo not drawn) [1-(3-Fluoro-benzyl)-2-(4-methyl-piperazin-1-ylmethyl)-cyclooctanol]	42
CN1CCN(CC2CCCCCCCCCCC2(O)Cc2cccc(F)c2)CC1 (stereo not drawn) [1-(3-Fluoro-benzyl)-2-(4-methyl-piperazin-1-ylmeethyl)-cyclododecanol]	45
C=CC1(O)CCCCCCCCCCC1CN1CCN(C)CC1 (stereo not drawn) [2-(4-Methyl-piperazin-1-ylmethyl)-1-vinyl-cyclododecanol]	49
